# Key:
# [1] = tested on: L. pneumophila serogroup 1; experiment: microbe, parasite or virus in culture; type: cell-based, Legionella pneumophila; settings: Legionella pneumophila; for MIC: 48 h, read-out: MIC Range; for MIC90: L. pneumophila serogroup 1 (n = 85)
# [2] = tested on: L. pneumophila serogroup 2; experiment: microbe, parasite or virus in culture; type: cell-based; settings: Legionella pneumophila; for MIC: 48 h, read-out: MIC Range
# [3] = tested on: L. pneumophila serogroup 3; experiment: microbe, parasite or virus in culture; type: cell-based; settings: Legionella pneumophila; for MIC: 48 h, read-out: MIC Range
# [4] = tested on: L. pneumophila serogroup 4; experiment: microbe, parasite or virus in culture; type: cell-based; settings: Legionella pneumophila; for MIC: 48 h, read-out: MIC Range
# [5] = tested on: L. pneumophila serogroup 5; experiment: microbe, parasite or virus in culture; type: cell-based; settings: Legionella pneumophila; for MIC: 48 h, read-out: MIC Range
# [6] = tested on: L. pneumophila serogroup 6; experiment: microbe, parasite or virus in culture; type: cell-based; settings: Legionella pneumophila; for MIC: 48 h, read-out: MIC Range
# [7] = tested on: L. pneumophila serogroup 7; experiment: microbe, parasite or virus in culture; type: cell-based; settings: Legionella pneumophila; for MIC: 48 h, read-out: MIC Range
# [8] = tested on: L. pneumophila serogroup 8, 9; experiment: microbe, parasite or virus in culture; type: cell-based; settings: Legionella pneumophila; for MIC: 48 h, read-out: MIC Range
# [9] = tested on: L. dumoffii; experiment: organism not typed; type: cell-based; settings: for MIC: 48 h, read-out: MIC Range
# [10] = tested on: L. micadadei; experiment: organism not typed; type: cell-based, L. micdadei; settings: for MIC: 48 h, read-out: MIC Range
# [11] = tested on: L. longbeacheae; experiment: organism not typed; type: cell-based; settings: for MIC: 48 h, read-out: MIC Range
# [12] = tested on: Other Legionella spp.; experiment: microbe, parasite or virus in culture; type: cell-based; settings: for MIC: 48 h, read-out: MIC Range
# [13] = tested on: Erythromycin-susceptible L. pneumophila; type: cell-based, Legionella pneumophila; settings: Erythromycin-susceptible L. pneumophila (n = 15); 4 × MIC; mean ± SD
# [14] = tested on: Erythromycin-susceptible Legionella spp. other than L. pneumophila; type: cell-based; settings: Erythromycin-susceptible Legionella spp. (n = 13); 4 × MIC; mean ± SD
# [15] = tested on: isolates of Legionella pneumophila and other Legionella spp.; experiment: microbe, parasite or virus in culture; type: cell-based
Structure (SMILES),MIC50 [1] [µg/mL],MIC [1] [ng/mL],MIC90 [1] [µg/mL],MIC50 [2] [ng/mL],MIC90 [2] [ng/mL],MIC [2] [ng/mL],MIC50 [3] [ng/mL],MIC90 [3] [µg/mL],MIC [3] [µg/mL],MIC50 [4] [µg/mL],MIC90 [4] [µg/mL],MIC [4] [µg/mL],MIC50 [5] [µg/mL],MIC90 [5] [µg/mL],MIC50 [6] [ng/mL],MIC90 [6] [µg/mL],MIC [6] [µg/mL],MIC50 [7] [ng/mL],MIC90 [7] [µg/mL],MIC [7] [ng/mL],other results
Cc1c(F)c(N2CCNC(C)C2)cc2c1c(=O)c(C(=O)O)cn2C1CC1 (stereo not drawn) [Grepafloxacin],0.016,4 to 60,0.016,8,16,4 to 30,8,0.016,0.004 to 0.016,0.008,0.016,0.008 to 0.016,0.016,0.03,8,0.016,0.004 to 0.016,≤ 4,0.008,4 to 8,MIC50 [8]: 8 ng/mL; MIC90 [8]: 0.008 µg/mL; MIC [8]: 0.008 µg/mL; MIC50 [9]: 0.06 µg/mL; MIC90 [9]: 0.06 µg/mL; MIC [9]: 0.06 µg/mL; MIC50 [10]: 0.008 µg/mL; MIC90 [10]: 0.016 µg/mL; MIC [10]: 0.004 to 0.016 µg/mL; MIC50 [11]: 0.03 µg/mL; MIC90 [11]: 0.06 µg/mL; MIC [11]: 0.004 to 0.06 µg/mL; MIC50 [12]: 0.03 µg/mL; MIC90 [12]: 0.03 µg/mL; MIC [12]: 0.004 to 0.03 µg/mL; Mean PAE [13]: 2.62 ± 3 h; Mean PAE [14]: 1.67 ± 1 h; MIC90 [15]: 0.016 µg/mL
C[C@H]1COc2c(N3CCN(C)CC3)c(F)cc3c(=O)c(C(=O)O)cn1c23 [Levofloxacin],0.016,4 to 16,0.016,8,8,4 to 16,8,0.016,0.008 to 0.016,0.016,0.016,0.004 to 0.016,0.008,0.016,8,0.016,0.008 to 0.016,8,0.016,8 to 16,MIC [5]: 4 to 16 ng/mL; MIC50 [8]: 8 ng/mL; MIC90 [8]: 0.016 µg/mL; MIC [8]: 0.008 to 0.016 µg/mL; MIC50 [9]: 0.016 µg/mL; MIC90 [9]: 0.016 µg/mL; MIC [9]: 0.016 µg/mL; MIC50 [10]: 0.016 µg/mL; MIC90 [10]: 0.016 µg/mL; MIC [10]: 0.008 to 0.016 µg/mL; MIC50 [11]: 0.016 µg/mL; MIC90 [11]: 0.016 µg/mL; MIC [11]: 0.008 to 0.016 µg/mL; MIC50 [12]: 0.016 µg/mL; MIC90 [12]: 0.016 µg/mL; MIC [12]: 0.008 to 0.06 µg/mL; Mean PAE [13]: 2.14 ± 2 h; Mean PAE [14]: 1.35 ± 1 h; MIC90 [15]: 0.016 µg/mL
COc1c(N2C[C@@H]3CCCN[C@@H]3C2)c(F)cc2c(=O)c(C(=O)O)cn(C3CC3)c12 [Moxifloxacin],0.016,4 to 30,0.016,8,8,4 to 16,8,0.016,0.004 to 0.016,0.016,0.016,0.004 to 0.016,0.016,0.016,8,0.016,0.004 to 0.016,≤ 4,0.016,4 to 16,MIC [5]: 4 to 30 ng/mL; MIC50 [8]: 16 ng/mL; MIC90 [8]: 0.016 µg/mL; MIC [8]: 0.016 µg/mL; MIC50 [9]: 0.03 µg/mL; MIC90 [9]: 0.03 µg/mL; MIC [9]: 0.008 to 0.03 µg/mL; MIC50 [10]: 0.016 µg/mL; MIC90 [10]: 0.03 µg/mL; MICs fold more active than erythromycin [10]: 5 fold; MIC [10]: 0.008 to 0.03 µg/mL; MIC50 [11]: 0.016 µg/mL; MIC90 [11]: 0.03 µg/mL; MIC [11]: 0.008 to 0.03 µg/mL; MIC50 [12]: 0.008 µg/mL; MIC90 [12]: 0.03 µg/mL; MIC [12]: 0.008 to 0.03 µg/mL; Mean PAE [13]: 3.59 ± 3 h; Mean PAE [14]: 1.18 ± 2 h; MIC90 [15]: 0.016 µg/mL

# Reference: US6340689B1 (priority 1999, dated 2002)
